Laboratory results reported in PMC3243694, “Integrated Dataset of Screening Hits against Multiple Neglected Disease Pathogens” (PLoS Neglected Tropical Diseases, 2011).

Key:
[1] = test system: Plasmodium falciparum K1 strain; experiment: Anti-Plasmodium activity assay (Malstat); type: cell-based; conditions: P. falciparum K1, 72 h
Description: (§1) The compound set was tested against the following parasites: intra-erythrocytic forms in human red blood cells of P. falciparum K1 strain (malaria), [16], [32], [33], [35], bloodstream forms of T. brucei Squib 427 strain (human African trypanosomiasis, HAT), [31], [32], [34], intracellular amastigotes of T. cruzi Tulahuen CL2, beta- galactosidase strain (Chagas' Disease), [32]–[35], intracellular amastigotes of L. infantum MHOM/MA(BE)/67 (leishmaniasis), [32]–[36], larval and/or adult worms of S. mansoni Puerto Rican strain (schistosomiasis), [31], [37], microfilariae of B. malayi (lymphatic filariasis), [30] and microfilariae of O. ochengi or O. lienalis (onchocerciasis), [30]. It should be noted that the human pathogen for onchocerciasis is Onchocerca volvulus, but due to lack of a suitable in vitro assay or animal models for this pathogen, O. ochengi and lienalis, which are both animal pathogens, are used in the primary and secondary assays, [30].

[2] = test system: Trypanosoma cruzi, Tulahuen CL2 strain; experiment: Antitrypanosomal activity assay, T. cruzi in MRC-5 cells; type: cell-based; conditions: T. cruzi Tulahuen CL2 in MRC-5 cells, 7 days
Description: as §1
171 of the 744 actives passed the initial criterion of IC50<1 µg/ml for T. cruzi Tulahuen CL2, beta galactosidase strain maintained on MRC-5SV2 cells in MEM medium (MRC-5 cell/parasite inoculum: 4.10^3 cells/well+4.10^4 parasites/well), supplemented with […] L-glutamine, 16.5 mM NaHCO3 and 5% heat inactivated fetal calf serum. […] Of these, 109 were eliminated [structures #1–6] for poor selectivity versus mammalian cells (SI<50) and an additional 11 due to undesirable chemical attributes. The remaining 51 compounds were sorted into 10 series (45 compounds) and 6 singletons [structures # 21, 22]. Two of these series with excellent potency against T. cruzi, limited activity against other protozoa and SI values >50 (not shown), have been transferred to DNDi for further evaluation.

[3] = test system: Trypanosoma brucei brucei Squib-427 strain; experiment: Antitrypanosomal activity assay, T. brucei (resazurin); type: cell-based; conditions: T. brucei Squib 427 bloodstream forms, 72 h
Description: as §1

[4] = test system: Onchocerca (lienalis or ochengi) microfilariae; experiment: Anti-Onchocerca microfilariae motility assay; type: cell-based, Onchocerca lienalis or O. ochengi
Description: as §1
4240 compound s were screened against O. ochengi at the University of Buea in Cameroon, while a subset of […] compounds was successfully screened in UK by the Northwick Park Institute for Medical Research against O. lienalis, at a uniform molarity. […] After removing molecules that were toxic to mammalian cells (IC50<5 µg/ml), 292 molecules remained for further evaluation. […] From the latter sub-set, […] distinct chemical series and one singleton [structure # 35] were active against both microfilaria and adults. One series [structures # 2, 3] was deemed not interesting due to lack of selectivity against mammalian cells. The remaining series is being transferred to ANDI for further progression as part of a new collaboration.

[5] = test system: Brugia malayi microfilariae; experiment: Anti-Brugia malayi microfilariae motility assay; type: cell-based; conditions: B. malayi microfilariae; 12.5 µM
Description: as §1
As result of logistics issues attributed to lost shipments of some compounds, only 6160 molecules of the 10,000 compound set were tested, at a uniform molarity, against B. malayi, including 6063 against microfilariae and 756 against adult worms (these sets overlap). […] Greatest priority was given to compounds with activity against adult worms, as no macrofilaricide is available for use in control campaigns and the activity of ivermectin as a microfilaricidal agent is unlikely to be bettered in a new series. Of the test set, 53 compounds met the activity criterion for microfilariae (100% motility reduction) and an additional 58 inhibited adult worm motility ≥75% at 10 µM. These were titrated to determine an IC50 value to support prioritization. Following cytotoxicity triage [structures # 1, 4, 6], eight compounds met the activity criterion for adult worms (i.e., 100% inhibition of adult worm motility), four of which were also active against microfilariae [structures # 14, 29, 30, 32]. […] Of these, the most interesting was TDR76699 [structure # 29]; this compound has very good activity against adult worms (IC50 = 0.1 µg/ml) and is also active against microfilariae (IC50 = 0.7 µg/ml). None of the other compounds tested against adult parasites had IC50 values ≤0.5 µg/ml, a threshold which would reduce concerns about specificity. However, a few series [structures # 31, 33, 34], appear interesting for future medicinal chemistry projects.

[6] = test system: Schistosoma mansoni adult worms; experiment: Anti-Schistosoma activity assay (adult worm motility); type: cell-based; conditions: S. mansoni adult worms; 12.5 µM (method: 10 µg/ml or 12.5 µM)
Description: as §1
A subset of 9478 of the 10,000 compound collection was tested against the Puerto Rican strain of S. mansoni. 6144 of these were tested in a primary larval assay followed by the ex-vivo adult secondary screen. The remainder was screened only in the adult assay. […] The 65 compounds were sorted by chemical attractiveness, potency against adult schistosomes in culture, selectivity against other parasites, and toxicity to mammalian cells in culture. Based on this analysis, 5 series encompassing 13 compounds were chosen for advancement through the African Network for Drug and Diagnostic Innovation (ANDI) and other PDPs. Representative structures [structures # 13, 27, 28] are shown (Table S1). These compounds are unburdened by obvious toxic moieties, have acceptable compliance with the Lipinski rules, are selectively active against schistosomes and are not overtly toxic to mammalian cells. It has unfortunately not been possible to titrate all of these hits in culture; of about 50% for which such data are available, none has an IC50<2 µg/ml (which is the initial potency criteria).

[7] = test system: MRC-5 cell line (diploid human embryonic lung fibroblast); experiment: Cytotoxicity on MRC-5 cells; type: cell-based
From the text: [table] An important part of the screen is the evaluation of all compounds for cytotoxicity using the diploid human embryonic lung fibroblast MRC-5 cell line (Figure 2). Further evaluation of cytotoxicity also takes advantage of the assays for intracellular protozoan parasites, as in the case of L. infantum and T. cruzi, which include murine peritoneal macrophage host cells and MRC-5SV2 human lung fibroblast cells, respectively, in the culture system.

Compound | MAL IC50 [1] | CHA IC50 [2] | HAT IC50 [3] | ONC/MF % Motility Reduction at 12.5µM [4] | LF/MF % Motility Reduction at 12.5µM [5] | SCH % Motility Reduction at 12.5µM [6] | CYT IC50 [7]
CCOc1ccc2nc(N(Cc3cccnc3)C(=O)c3ccc(Cl)s3)sc2c1 [TDR81636] | 3.55 µg/mL | 0.66 µg/mL | 3.52 µg/mL | 11% | 0% | 0% | >12.2 µg/mL
Cc1ccc(N2CCn3c2nnc(C(=O)NCCC2=CCCCC2)c3=O)cc1 [TDR81281] | 0.15 µg/mL | >11.38 µg/mL | >11.38 µg/mL | 0% |  | 0% | >11.38 µg/mL
Cc1c(C(=O)N2CCC(C)CC2)sc2nc(-c3ccc(F)cc3)cn12 [TDR77657] | >10.72 µg/mL | >10.72 µg/mL | 0.42 µg/mL | 0% | 0% | 0% | >10.72 µg/mL
COc1ccc(N2CCCS2(=O)=O)cc1NC(=O)c1cc(Cl)ccc1OC [TDR79456] | >12.3 µg/mL | 5.0 µg/mL | 4.3 µg/mL | 13.3% |  | 4% | >12.3 µg/mL
O=C(c1ccccc1)N1CCN(c2ccc(Nc3ccccn3)nn2)CC1 [TDR86082] | >10.8 µg/mL | >10.8 µg/mL | >10.8 µg/mL | 0% | 0% | 0% | >10.8 µg/mL
O=S(=O)(NCC(c1cccnc1)N1CCN(Cc2ccccc2)CC1)c1ccc(Cl)cc1 (stereo not shown) [TDR78023] | 2.18 µg/mL | 0.63 µg/mL | >14.13 µg/mL | 0% |  | 0% | >14.13 µg/mL
CC(C)(C)n1ncc2c(=O)n(CCC(=O)NCc3ccccc3Cl)cnc21 [TDR84851] | >11.64 µg/mL | >11.64 µg/mL | >11.64 µg/mL | 0% | 20% | 100% | >11.64 µg/mL
O=C(CSc1ccc2nnc(-c3ccccn3)n2n1)NCC1CCCO1 (stereo not shown) [TDR78834] | 3.15 µg/mL | 5.2 µg/mL | 3.3 µg/mL | 0% |  | 0% | >12.1 µg/mL
CSc1cccc(C(=O)N(Cc2cccnc2)c2nc3ccc(S(C)(=O)=O)cc3s2)c1 [TDR84433] | 8.28 µg/mL | 0.38 µg/mL | >14.09 µg/mL | 0% | 0% | 0% | >14.09 µg/mL
CSc1ccc2nc(N(Cc3cccnc3)C(=O)c3ccc(C(C)(C)C)cc3)sc2c1 [TDR84420] | 0.15 µg/mL | 0.56 µg/mL | >13.43 µg/mL | 25% | 0% | 0% | 7.16 µg/mL
O=S(=O)(c1cccc(F)c1)N1CCN(c2ccc(Nc3cccnc3)nn2)CC1 [TDR86129] | 5.44 µg/mL | >12.43 µg/mL | >12.43 µg/mL | 0% | 0% | 0% | 0.94 µg/mL
O=C(CN1CCC(C(=O)Nc2ccc(Oc3ccccc3)cc2)CC1)Nc1ccc(F)cc1 [TDR80731] | >13.43 µg/mL | >13.43 µg/mL | >13.43 µg/mL | 0% |  | 0% | >13.43 µg/mL
CS(=O)(=O)c1ccc2nc(N(Cc3cccnc3)C(=O)c3ccc4ccccc4c3)sc2c1 [TDR84431] | >14.21 µg/mL | 0.23 µg/mL | >14.21 µg/mL | 0% | 0% | 0% | >14.21 µg/mL
C=CCN(CC=C)S(=O)(=O)c1ccc(C(=O)Nc2nc3ccc(C(C)C)cc3s2)cc1 [TDR78794] | >10.99 µg/mL | 4.48 µg/mL | >10.99 µg/mL | 0% |  | 100% | >10.99 µg/mL
CCCn1/c(=N/C(=O)C2=COCCO2)sc2c(C)ccc(OC)c21 [TDR82272] | 3.18 µg/mL | 0.89 µg/mL | >10.45 µg/mL | 20% | 0% | 0% | >10.45 µg/mL
O=C(Cc1csc(NC(=O)C2CCC(=O)N2)n1)NCc1ccccn1 (stereo not shown) [TDR84826] | >10.78 µg/mL | >10.78 µg/mL | >10.78 µg/mL | 50% | 20% | 100% | >10.78 µg/mL
O=C(Nc1nc(-c2ccncc2)cs1)C1CCCN(S(=O)(=O)c2ccc(Cl)s2)C1 (stereo not shown) [TDR80165] | 6.68 µg/mL | 0.24 µg/mL | 4.5 µg/mL | 50% |  | 0% | >14.07 µg/mL
Cc1ccc(C(=O)Nc2nnc(Cc3cccs3)o2)cc1C [TDR85275] |  | 3.01 µg/mL | 0.38 µg/mL | 0% | 50% | 25% | 
COc1ccc(SCC(=O)Nc2nc(-c3ccccn3)cs2)cc1 [TDR83845] | >10.72 µg/mL | 0.36 µg/mL | 0.35 µg/mL | 86% | 0% | 0% | >10.72 µg/mL
